These results are taken from PubChem BioAssay (NCI).

Assay in all cases: NCI-60 cell line screen, 48 h
Test [1] concerns HL-60(TB) leukemia.
For test [2], the system named is HT29 colon.
For test [3], the system named is IGROV1 ovarian.
The subject of test [4] is MCF7 breast.
Test [5] relates to NCI-H460 lung.
Test [6] relates to NCI/ADR-RES ovarian.
Test [7] relates to OVCAR-4 ovarian.
Test [8] deals with SW-620 colon.
Test [9] relates to T-47D breast.
Test [10] has as its system UACC-62 melanoma.

Each structure is given as a SMILES string.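 Five compound concentrations were applied to cells in 96-well plates for 48 hours; endpoints were derived by simple linear interpolation of the resulting dose-response curve. GI50 marks 50% less growth. TGI: concentration producing complete growth inhibition.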 A value given as a limit tells only on which side of the number the result lay.

Turning to `COc1cccc(C2CC(=O)Nc3c2c(C)nn3-c2nc3ccccc3[nH]2)c1OC` (configuration not stated), the GI50 in [1] was 2.97 µM; in test [2] it was 4.35 µM; in test [3] it was 4.33 µM; in test [4], 3.36 µM; in [5], 3.09 µM; in test [6], 6.67 µM. Further, the GI50 in [7] is 6.92 µM; in [8], 4.19 µM; in [9], 4.02 µM; in test [10] it was 2.52 µM. For the same compound, the TGI in [1] is 13.8 µM; in [2], above 47.6 µM; in test [3], 24 µM; in test [4], above 100 µM; in [5], 10.2 µM; in test [6] it was above 100 µM. In addition, the TGI in test [7] is above 91.3 µM; in test [8], 46.4 µM; in test [9], 50.7 µM; in test [10] it was 7.86 µM.
In the case of `CC[C@H](C)[C@H](NC(=O)C12C3C4C1C1C2C3C41NC)C(=O)N(C)[C@H](C[C@@H](OC(C)=O)c1nc(C(=O)N[C@@H](Cc2ccccc2)C[C@H](C)C(=O)OC)cs1)C(C)C` (some centres not stated), the GI50 is 0.0568 µM in test [1]; 0.29 µM in test [2]; 0.88 µM in test [3]; 0.0552 µM in test [4]; 0.617 µM in test [5]; 8.15 µM in test [6]. The GI50 in test [7] was 1.75 µM; in [8] it was 0.459 µM; in test [9], above 14.3 µM; in test [10], 0.118 µM. For the same compound, the TGI in test [1] was 0.346 µM; in test [2], above 4.78 µM; in test [3] it was above 14.3 µM; in test [4], above 14.3 µM; in test [5] it was above 14.3 µM; in [6], above 14.3 µM. In addition, the TGI in [7], in test [8], in test [9] and in test [10] was above 14.3 µM in each case.
`CC1(C)CC(O)CC(C)(C)N1O`: the GI50 in test [1] and in test [7] was above 100 µM in each case. Also, the TGI in [1], in [2], in [3], in [4], in test [5] and in test [6] was above 100 µM in each case. Further, the TGI in [7], in test [8], in test [9] and in [10] was above 100 µM each time.
Turning to `Cn1cc(-c2cc(-c3cn(C)c4ccccc34)[nH]n2)c2ccccc21`, the GI50 in test [1] is 15.4 µM; in test [2], 5.35 µM; in [3] it was 8.9 µM; in test [4] it was 3.95 µM; in test [5], 4.48 µM; in test [6], 27.6 µM. The GI50 in test [7] is 34.9 µM; in test [8], above 100 µM; in test [9], 79.7 µM; in [10], 16.4 µM. Also, the TGI in test [1] is 62.8 µM; in test [2], above 100 µM; in test [3], 74.1 µM; in test [4], above 100 µM; in [5], above 100 µM; in test [6], above 100 µM. The TGI in [7], in test [8], in [9] and in test [10] was above 100 µM in each case.
With `O=c1[nH]c2cc(Cl)ccc2nc1/C(=N\Nc1ccccc1)C(O)c1ccc2c(c1)OCO2` (configuration not stated), the TGI in [1], in [2], in test [3], in test [4], in test [5] and in [6] was above 100 µM throughout. The TGI in [7], in test [8], in test [9] and in [10] was above 100 µM each time.
On to `COc1cccc(/C=C2\N=C(c3ccccc3)OC2=O)c1`, for which the TGI is 26 µM in [1]; above 100 µM in test [2]; above 100 µM in test [3]; above 100 µM in test [4]; above 100 µM in test [5]; 90.6 µM in test [6]. For the same compound, the TGI in [7], in test [8], in test [9] and in test [10] was above 100 µM in each case.
Turning to `CN1C2C=CC(=O)C1C1C(=O)N(c3ccccc3)C(=O)C12` (configuration not stated), the GI50 in test [1] is 2.19 µM; in test [2] it was 3.92 µM; in test [3], 12.1 µM; in test [4], 4.01 µM; in test [5], 12.7 µM; in test [6], 17 µM. For the same compound, the GI50 in test [7] was 11.7 µM; in [8] it was 3.09 µM; in test [9], 5.65 µM; in test [10], 11.5 µM. The TGI was above 100 µM in [1]; 23.4 µM in [2]; 27.9 µM in test [3]; 16.5 µM in test [4]; 28.9 µM in test [5]; 95.3 µM in test [6]. Moreover, the TGI in [7] worked out at 38.7 µM; in [8], 10.7 µM; in test [9], 22.6 µM; in test [10], 24.3 µM.
On to `COc1ccc(-c2nsc3c2NC(=O)CC3c2ccsc2)cc1` (configuration not stated), for which the GI50 in test [1] is 0.143 µM; in test [2], 0.0643 µM; in [3], 0.984 µM; in test [4], 0.32 µM; in test [5], 0.228 µM; in [6], 0.064 µM. The GI50 in test [7] is 3.47 µM; in test [8], 0.0684 µM; in [9], 0.454 µM; in [10] it was 0.295 µM. Further, the TGI in test [1] was 20.6 µM; in test [2], 32.8 µM; in test [3] it was above 100 µM; in test [4] it was above 100 µM; in test [5], 9.49 µM; in [6], 0.278 µM. For the same compound, the TGI was above 100 µM in test [7], above 100 µM in [8], 65.6 µM in test [9] and 65 µM in [10].
Regarding `Cc1nc2c(C)ccc([N+](=O)[O-])c2c(NCCCN(C)C)c1C`, the TGI in [1] was above 68.3 µM; in test [2] it was above 70.8 µM; in test [3], above 100 µM; in [4], above 100 µM; in test [5], above 100 µM; in test [6], above 100 µM. Further, the TGI was above 100 µM in test [7], above 53 µM in test [8], above 100 µM in test [9] and above 100 µM in test [10].
